Assay results taken from PubChem BioAssay AID1963835 (Molecular Pharmacology Branch, DTP, NCI, 2024).

Test system: 699152-130-R-J1-PDC complex spheroid viability
Assay: Anticancer human tumor 699152-130-R-J1-PDC patient-derived pancreatic carcinoma cell line growth inhibition [POLQ]
Details: for IC50: curve of first compound; for viability, T/C: stronger effect = lower value
In short: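 Three-cell-type spheroids modelling solid tumor plus stroma served as the readout system; POL inhibitors were tested individually and in combination, concentration ranges set by clinical Cmax where known.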

[1] = second compound 0.0316 µM, first compound 0.0316 µM
[2] = second compound 0.0316 µM, first compound 0.1 µM
[3] = second compound 0.0316 µM, first compound 0.316 µM
[4] = second compound 0.0316 µM, first compound 1 µM
[5] = second compound 0.0316 µM, first compound 3.16 µM
[6] = second compound 0.0316 µM, first compound 10 µM
[7] = second compound 0.1 µM, first compound 0.0316 µM
[8] = second compound 0.1 µM, first compound 0.1 µM
[9] = second compound 0.1 µM, first compound 0.316 µM
[10] = second compound 0.1 µM, first compound 1 µM
[11] = second compound 0.1 µM, first compound 3.16 µM
[12] = second compound 0.1 µM, first compound 10 µM
[13] = second compound 0.316 µM, first compound 0.0316 µM
[14] = second compound 0.316 µM, first compound 0.1 µM
[15] = second compound 0.316 µM, first compound 0.316 µM
[16] = second compound 0.316 µM, first compound 1 µM
[17] = second compound 0.316 µM, first compound 3.16 µM
[18] = second compound 0.316 µM, first compound 10 µM
[19] = second compound 1 µM, first compound 0.0316 µM
[20] = second compound 1 µM, first compound 0.1 µM
[21] = second compound 1 µM, first compound 0.316 µM
[22] = second compound 1 µM, first compound 1 µM
[23] = second compound 1 µM, first compound 3.16 µM
[24] = second compound 1 µM, first compound 10 µM
[25] = second compound 3.16 µM, first compound 0.0316 µM
[26] = second compound 3.16 µM, first compound 0.1 µM
[27] = second compound 3.16 µM, first compound 0.316 µM
[28] = second compound 3.16 µM, first compound 1 µM
[29] = second compound 3.16 µM, first compound 3.16 µM
[30] = second compound 3.16 µM, first compound 10 µM
[31] = second compound 10 µM, first compound 0.0316 µM
[32] = second compound 10 µM, first compound 0.1 µM
[33] = second compound 10 µM, first compound 0.316 µM
[34] = second compound 10 µM, first compound 1 µM
[35] = second compound 10 µM, first compound 3.16 µM
[36] = second compound 10 µM, first compound 10 µM
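Further: spheroids exposed to agents for 7 days before viability reading.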
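Wherever viability, T/C is given: percent of DMSO vehicle control viability so 100% = vehicle and 0% = no viable signal.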

With C=CC(=O)N1CCN(c2nc(=O)n(-c3c(C)ccnc3C(C)C)c3nc(-c4c(O)cccc4F)c(F)cc23)C(C)C1 (centres undefined) + Cc1cccc(N(C)C(=O)C2C(O)CCN2c2nc(C)cc(C(F)(F)F)c2C#N)c1 the IC50 (second compound 0.0316 µM) was > 10 µM, the IC50 (second compound 0.1 µM) was > 10 µM and the IC50 (second compound 0.316 µM) was > 10 µM. The IC50 (second compound 1 µM) was > 10 µM, the IC50 (second compound 3.16 µM) was > 10 µM and the IC50 (second compound 10 µM) was > 10 µM. The viability, T/C [1] was 92.9%, the viability, T/C [2] was 99.6% and the viability, T/C [3] was 102%. For the same compound, the viability, T/C [4] was 110%, the viability, T/C [5] was 113% and the viability, T/C [6] was 115%. It also gave a viability, T/C [7] of 102%, a viability, T/C [8] of 89.4% and a viability, T/C [9] of 113%. For the same compound, the viability, T/C [10] was 93.8%, the viability, T/C [11] was 119% and the viability, T/C [12] was 105%. It also gave a viability, T/C [13] of 99.9%, a viability, T/C [14] of 103% and a viability, T/C [15] of 103%. For the same compound, the viability, T/C [16] was 103%, the viability, T/C [17] was 114% and the viability, T/C [18] was 110%. The viability, T/C [19] was 108%, the viability, T/C [20] was 89.7% and the viability, T/C [21] was 102%. For the same compound, the viability, T/C [22] was 113%, the viability, T/C [23] was 108% and the viability, T/C [24] was 109%. The viability, T/C [25] was 92.2%, the viability, T/C [26] was 91.3% and the viability, T/C [27] was 98.8%. The viability, T/C [28] was 105%, the viability, T/C [29] was 114% and the viability, T/C [30] was 104%. For the same compound, the viability, T/C [31] was 103%, the viability, T/C [32] was 104% and the viability, T/C [33] was 108%. The viability, T/C [34] was 109%, the viability, T/C [35] was 120% and the viability, T/C [36] was 119%.

C=CC(=O)N1CCN(c2nc(=O)n(-c3c(C)ccnc3C(C)C)c3nc(-c4c(O)cccc4F)c(F)cc23)C(C)C1 (centres undefined) + COC1C(OC(N)=O)C(O)C(Oc2ccc3c(O)c(NC(=O)c4ccc(O)c(CC=C(C)C)c4)c(=O)oc3c2C)OC1(C)C was tested, and the IC50 (second compound 0.0316 µM) was > 10 µM, the IC50 (second compound 0.1 µM) was > 10 µM and the IC50 (second compound 0.316 µM) was > 10 µM. The IC50 (second compound 1 µM) was > 10 µM, the IC50 (second compound 3.16 µM) was > 10 µM and the IC50 (second compound 10 µM) was > 10 µM. The viability, T/C [1] was 110%, the viability, T/C [2] was 98% and the viability, T/C [3] was 97.7%. The viability, T/C [4] was 102%, the viability, T/C [5] was 116% and the viability, T/C [6] was 100%. The viability, T/C [7] was 104%, the viability, T/C [8] was 96.3% and the viability, T/C [9] was 107%. The viability, T/C [10] was 118%, the viability, T/C [11] was 126% and the viability, T/C [12] was 114%. For the same compound, the viability, T/C [13] was 123%, the viability, T/C [14] was 108% and the viability, T/C [15] was 109%. For the same compound, the viability, T/C [16] was 103%, the viability, T/C [17] was 122% and the viability, T/C [18] was 105%. It also gave a viability, T/C [19] of 102%, a viability, T/C [20] of 108% and a viability, T/C [21] of 101%. For the same compound, the viability, T/C [22] was 108%, the viability, T/C [23] was 129% and the viability, T/C [24] was 104%. It also gave a viability, T/C [25] of 106%, a viability, T/C [26] of 92.8% and a viability, T/C [27] of 99.8%. It also gave a viability, T/C [28] of 105%, a viability, T/C [29] of 125% and a viability, T/C [30] of 114%. It also gave a viability, T/C [31] of 116%, a viability, T/C [32] of 94.7% and a viability, T/C [33] of 103%. The viability, T/C [34] was 110%, the viability, T/C [35] was 117% and the viability, T/C [36] was 106%.
